Experimental data published in US20250353891A1 (MEDIMMUNE LIMITED, priority 2022, published 2025).
Starred links: 1 amine or outer side, 2 acyl side, 3 side chain; linkers in the order of their positions; H or OH if unused. Non-standard residues stand in square brackets, D forms with d. Residues, ends and D or L forms follow the SMILES beside them. Groups on a side chain read outwards from the residue. *: point of attachment. C20 diacid = O=C(O)CCCCCCCCCCCCCCCCCCC(=O)*; C18 diacid = O=C(O)CCCCCCCCCCCCCCCCC(=O)*; γGlu = O=C(O)[C@H](CCC(=O)[*:2])N[*:1]; X3 = O=C(CN(Cc1c[nH]cn1)[*:1])[*:2]; αMeF = C[C@](N)(Cc1ccccc1)C(=O)O; AEEA = NCCOCCOCC(=O)O; Aib = CC(C)(N)C(=O)O

Tests used:
[1] = biological target: human glucagon receptor (hGCGR) (Homo sapiens, UniProt P47871); experiment: cAMP production (HTRF) in CHO cells expressing hGCGR; type: cell-based; set-up: expressed in transfected cells; conditions: Table 7, peptides modified at position 20; cAMP in CHO hGCGR cells; geometric mean; read-out: hGluc-R EC50
How it was run: (§1)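 Cells were resuspended in assay buffer at batch-optimized density, typically 1×10^5 cells/mL for hGLP-1R and 2×10^5 cells/mL for hGCGR. After 30 min incubation at room temperature with compound, cAMP was measured by two-step HTRF. EC50 values came from 4-parameter logistic fits of % Delta F.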

[2] = biological target: human GLP-1 receptor (hGLP-1R) (Homo sapiens, UniProt P43220); experiment: cAMP production (HTRF) in CHO cells expressing hGLP-1R; type: cell-based; set-up: expressed in transfected cells; conditions: for EC50: Table 7, peptides modified at position 20, cAMP in CHO hGLP-1R cells, geometric mean, read-out: hGLP-1R EC50; for % Relative Potency Ratio: Table 7, % GLP-1R activity relative to GLP-1 / % GlucR activity relative to glucagon
How it was run: as §1

human GLP-1 receptor (hGLP-1R), sequence (P43220 24-463): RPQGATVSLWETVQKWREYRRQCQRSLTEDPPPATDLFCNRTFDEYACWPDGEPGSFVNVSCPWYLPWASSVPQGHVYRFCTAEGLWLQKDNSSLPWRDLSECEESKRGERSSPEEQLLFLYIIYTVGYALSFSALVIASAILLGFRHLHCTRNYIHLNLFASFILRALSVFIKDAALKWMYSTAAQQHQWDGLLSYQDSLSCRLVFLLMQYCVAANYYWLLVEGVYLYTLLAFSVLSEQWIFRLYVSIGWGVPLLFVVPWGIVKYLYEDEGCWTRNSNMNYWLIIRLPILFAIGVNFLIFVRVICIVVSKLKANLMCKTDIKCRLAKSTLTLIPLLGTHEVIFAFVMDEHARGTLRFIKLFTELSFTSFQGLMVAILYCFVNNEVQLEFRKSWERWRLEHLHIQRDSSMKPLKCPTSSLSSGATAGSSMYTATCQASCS
human glucagon receptor (hGCGR), sequence (P47871 26-477): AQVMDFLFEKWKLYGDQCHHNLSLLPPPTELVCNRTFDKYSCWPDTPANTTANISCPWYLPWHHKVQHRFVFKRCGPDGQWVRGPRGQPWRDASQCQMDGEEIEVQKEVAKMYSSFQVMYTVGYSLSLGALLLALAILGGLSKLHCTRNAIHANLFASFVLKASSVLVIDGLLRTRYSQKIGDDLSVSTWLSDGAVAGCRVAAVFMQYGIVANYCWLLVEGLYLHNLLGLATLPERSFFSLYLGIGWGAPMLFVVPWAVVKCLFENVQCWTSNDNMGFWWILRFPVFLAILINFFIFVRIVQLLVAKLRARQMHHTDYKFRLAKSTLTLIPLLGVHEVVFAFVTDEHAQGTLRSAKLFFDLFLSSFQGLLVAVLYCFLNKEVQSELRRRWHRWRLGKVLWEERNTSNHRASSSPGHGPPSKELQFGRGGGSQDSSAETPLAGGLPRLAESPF

EC50 [1]	EC50 [2]	% Relative Potency Ratio [2]	SMILES
1.23 nM	0.249 nM	9.8	CC[C@H](C)[C@H](NC(=O)[C@H](CO)NC(=O)[C@H](CCC(N)=O)NC(=O)[C@@H](NC(=O)[C@H](Cc1ccccc1)NC(=O)[C@H](CC(=O)O)NC(=O)[C@H](CCCCNC(=O)COCCOCCNC(=O)COCCOCCNC(=O)CC[C@H](NC(=O)CC[C@H](NC(=O)CCCCCCCCCCCCCCCCCCC(=O)O)C(=O)O)C(=O)O)NC(=O)[C@H](C)NC(=O)C(C)(C)NC(=O)[C@H](CCCNC(=N)N)NC(=O)[C@H](CO)NC(=O)[C@H](CC(=O)O)NC(=O)[C@H](CC(C)C)NC(=O)[C@](C)(Cc1ccccc1)NC(=O)[C@H](CCCCN)NC(=O)[C@H](CO)NC(=O)[C@@H](NC(=O)[C@H](CC(=O)O)NC(=O)[C@H](CO)NC(=O)[C@@H](NC(=O)[C@](C)(Cc1ccccc1)NC(=O)[C@H](CO)NC(=O)CNC(=O)[C@H](Cc1c[nH]cn1)NC(=O)C(C)(C)NC(=O)[C@@H](N)Cc1c[nH]cn1)[C@@H](C)O)C(C)C)C(C)C)C(=O)N[C@@H](C)C(=O)N[C@@H](CC(N)=O)C(=O)N[C@H](C(N)=O)[C@@H](C)O [Peptide 242] (H-H[Aib]HGS[αMeF]TSDVSK[αMeF]LDSR[Aib]AK([AEEA-AEEA-γGlu-γGlu-C20 diacid])DFVQSIANT-NH2; N-terminus assumed)
0.0506 nM	0.0593 nM	1.7	CC[C@H](C)[C@H](NC(=O)[C@H](CO)NC(=O)[C@H](CCC(N)=O)NC(=O)[C@@H](NC(=O)[C@](C)(Cc1ccccc1)NC(=O)[C@H](CC(=O)O)NC(=O)[C@H](CCCCNC(=O)COCCOCCNC(=O)COCCOCCNC(=O)CC[C@H](NC(=O)CCCCCCCCCCCCCCCCC(=O)O)C(=O)O)NC(=O)[C@H](C)NC(=O)[C@H](C)NC(=O)[C@H](CCCNC(=N)N)NC(=O)[C@H](CO)NC(=O)[C@H](CC(=O)O)NC(=O)[C@H](CC(C)C)NC(=O)[C@](C)(Cc1ccccc1)NC(=O)[C@H](CCCCN)NC(=O)[C@H](CO)NC(=O)[C@@H](NC(=O)[C@H](CC(=O)O)NC(=O)[C@H](CO)NC(=O)[C@@H](NC(=O)[C@](C)(Cc1ccccc1)NC(=O)[C@H](CO)NC(=O)CNC(=O)[C@H](Cc1c[nH]cn1)NC(=O)C(C)(C)NC(=O)[C@@H](N)Cc1c[nH]cn1)[C@@H](C)O)C(C)C)C(C)C)C(=O)N[C@@H](C)C(=O)N[C@@H](CC(N)=O)C(=O)N[C@H](C(N)=O)[C@@H](C)O [Peptide 243] (H-H[Aib]HGS[αMeF]TSDVSK[αMeF]LDSRAAK([AEEA-AEEA-γGlu-C18 diacid])D[αMeF]VQSIANT-NH2)
0.42 nM	0.143 nM	5.8	CC[C@H](C)[C@H](NC(=O)[C@H](CO)NC(=O)[C@H](CCC(N)=O)NC(=O)[C@@H](NC(=O)[C@](C)(Cc1ccccc1)NC(=O)[C@H](CC(=O)O)NC(=O)[C@H](CCCCNC(=O)COCCOCCNC(=O)COCCOCCNC(=O)CC[C@H](NC(=O)CC[C@H](NC(=O)CCCCCCCCCCCCCCCCCCC(=O)O)C(=O)O)C(=O)O)NC(=O)[C@H](C)NC(=O)[C@H](C)NC(=O)[C@H](CCCNC(=N)N)NC(=O)[C@H](CO)NC(=O)[C@H](CC(=O)O)NC(=O)[C@H](CC(C)C)NC(=O)[C@](C)(Cc1ccccc1)NC(=O)[C@H](CCCCN)NC(=O)[C@H](CO)NC(=O)[C@@H](NC(=O)[C@H](CC(=O)O)NC(=O)[C@H](CO)NC(=O)[C@@H](NC(=O)[C@](C)(Cc1ccccc1)NC(=O)[C@H](CO)NC(=O)CNC(=O)[C@H](Cc1c[nH]cn1)NC(=O)C(C)(C)NC(=O)[C@@H](N)Cc1c[nH]cn1)[C@@H](C)O)C(C)C)C(C)C)C(=O)N[C@@H](C)C(=O)N[C@@H](CC(N)=O)C(=O)N[C@H](C(N)=O)[C@@H](C)O [Peptide 244] (H-H[Aib]HGS[αMeF]TSDVSK[αMeF]LDSRAAK([AEEA-AEEA-γGlu-γGlu-C20 diacid])D[αMeF]VQSIANT-NH2)
0.0627 nM	0.11 nM	1.1	CC[C@H](C)[C@H](NC(=O)[C@H](CO)NC(=O)[C@H](CCC(=O)O)NC(=O)[C@@H](NC(=O)[C@](C)(Cc1ccccc1)NC(=O)[C@H](CC(=O)O)NC(=O)[C@H](CCCCNC(=O)COCCOCCNC(=O)COCCOCCNC(=O)CC[C@H](NC(=O)CCCCCCCCCCCCCCCCC(=O)O)C(=O)O)NC(=O)[C@H](C)NC(=O)[C@H](C)NC(=O)[C@H](CCCNC(=N)N)NC(=O)[C@H](CO)NC(=O)[C@H](CC(=O)O)NC(=O)[C@H](CC(C)C)NC(=O)[C@](C)(Cc1ccccc1)NC(=O)[C@H](CCCCN)NC(=O)[C@H](CO)NC(=O)[C@@H](NC(=O)[C@H](CC(=O)O)NC(=O)[C@H](CO)NC(=O)[C@@H](NC(=O)[C@](C)(Cc1ccccc1)NC(=O)[C@H](CO)NC(=O)CNC(=O)[C@H](Cc1c[nH]cn1)NC(=O)C(C)(C)NC(=O)[C@@H](N)Cc1c[nH]cn1)[C@@H](C)O)C(C)C)C(C)C)C(=O)N[C@@H](C)C(=O)N[C@@H](CC(N)=O)C(=O)N[C@H](C(N)=O)[C@@H](C)O [Peptide 245] (H-H[Aib]HGS[αMeF]TSDVSK[αMeF]LDSRAAK([AEEA-AEEA-γGlu-C18 diacid])D[αMeF]VESIANT-NH2)
0.557 nM	0.32 nM	3.4	CC[C@H](C)[C@H](NC(=O)[C@H](CO)NC(=O)[C@H](CCC(=O)O)NC(=O)[C@@H](NC(=O)[C@](C)(Cc1ccccc1)NC(=O)[C@H](CC(=O)O)NC(=O)[C@H](CCCCNC(=O)COCCOCCNC(=O)COCCOCCNC(=O)CC[C@H](NC(=O)CC[C@H](NC(=O)CCCCCCCCCCCCCCCCCCC(=O)O)C(=O)O)C(=O)O)NC(=O)[C@H](C)NC(=O)[C@H](C)NC(=O)[C@H](CCCNC(=N)N)NC(=O)[C@H](CO)NC(=O)[C@H](CC(=O)O)NC(=O)[C@H](CC(C)C)NC(=O)[C@](C)(Cc1ccccc1)NC(=O)[C@H](CCCCN)NC(=O)[C@H](CO)NC(=O)[C@@H](NC(=O)[C@H](CC(=O)O)NC(=O)[C@H](CO)NC(=O)[C@@H](NC(=O)[C@](C)(Cc1ccccc1)NC(=O)[C@H](CO)NC(=O)CNC(=O)[C@H](Cc1c[nH]cn1)NC(=O)C(C)(C)NC(=O)[C@@H](N)Cc1c[nH]cn1)[C@@H](C)O)C(C)C)C(C)C)C(=O)N[C@@H](C)C(=O)N[C@@H](CC(N)=O)C(=O)N[C@H](C(N)=O)[C@@H](C)O [Peptide 246] (H-H[Aib]HGS[αMeF]TSDVSK[αMeF]LDSRAAK([AEEA-AEEA-γGlu-γGlu-C20 diacid])D[αMeF]VESIANT-NH2)
13.6 nM	1.09 nM	24.6	CC[C@H](C)[C@H](NC(=O)[C@H](Cc1c[nH]c2ccccc12)NC(=O)[C@H](CCC(N)=O)NC(=O)[C@@H](NC(=O)[C@](C)(Cc1ccccc1)NC(=O)[C@H](CC(=O)O)NC(=O)[C@H](CCCCNC(=O)COCCOCCNC(=O)COCCOCCNC(=O)CC[C@H](NC(=O)CC[C@H](NC(=O)CCCCCCCCCCCCCCCCCCC(=O)O)C(=O)O)C(=O)O)NC(=O)[C@H](C)NC(=O)[C@H](C)NC(=O)[C@H](CCCNC(=N)N)NC(=O)[C@H](CO)NC(=O)[C@H](CC(=O)O)NC(=O)[C@H](CC(C)C)NC(=O)[C@](C)(Cc1ccccc1)NC(=O)[C@H](CCCCN)NC(=O)[C@H](CO)NC(=O)[C@@H](NC(=O)[C@H](CC(=O)O)NC(=O)[C@H](CO)NC(=O)[C@@H](NC(=O)[C@](C)(Cc1ccccc1)NC(=O)[C@H](CO)NC(=O)CNC(=O)[C@H](Cc1c[nH]cn1)NC(=O)[C@H](CO)NC(=O)CNCc1c[nH]cn1)[C@@H](C)O)C(C)C)C(C)C)C(=O)N[C@@H](C)C(=O)N[C@@H](CC(N)=O)C(=O)N[C@H](C(N)=O)[C@@H](C)O [Peptide 248] (H-[X3]SHGS[αMeF]TSDVSK[αMeF]LDSRAAK([AEEA-AEEA-γGlu-γGlu-C20 diacid])D[αMeF]VQWIANT-NH2; N-terminus assumed)
0.545 nM	0.558 nM	1.9	CC[C@H](C)[C@H](NC(=O)[C@H](CO)NC(=O)[C@H](CCC(=O)O)NC(=O)[C@@H](NC(=O)[C@](C)(Cc1ccccc1)NC(=O)[C@H](CC(=O)O)NC(=O)[C@H](CCCCNC(=O)COCCOCCNC(=O)COCCOCCNC(=O)CC[C@H](NC(=O)CC[C@H](NC(=O)CCCCCCCCCCCCCCCCCCC(=O)O)C(=O)O)C(=O)O)NC(=O)[C@H](C)NC(=O)C(C)(C)NC(=O)[C@H](CCCNC(=N)N)NC(=O)[C@H](CO)NC(=O)[C@H](CC(=O)O)NC(=O)[C@H](CC(C)C)NC(=O)[C@](C)(Cc1ccccc1)NC(=O)[C@H](CCCCN)NC(=O)[C@H](CO)NC(=O)[C@@H](NC(=O)[C@H](CC(=O)O)NC(=O)[C@H](CO)NC(=O)[C@@H](NC(=O)[C@](C)(Cc1ccccc1)NC(=O)[C@H](CO)NC(=O)CNC(=O)[C@H](Cc1c[nH]cn1)NC(=O)C(C)(C)NC(=O)[C@@H](N)Cc1c[nH]cn1)[C@@H](C)O)C(C)C)C(C)C)C(=O)N[C@@H](C)C(=O)N[C@@H](CC(N)=O)C(=O)N[C@H](C(N)=O)[C@@H](C)O [Peptide 249] (H-H[Aib]HGS[αMeF]TSDVSK[αMeF]LDSR[Aib]AK([AEEA-AEEA-γGlu-γGlu-C20 diacid])D[αMeF]VESIANT-NH2)
